Like-named read-outs stand apart in the source and are kept apart here.
Columns and labels:
[1] = system: stem IIa region of the HCV IRES (5′-UTR of HCV RNA); test: Mass spectrometry based binding assay; conditions: for binding percentage of ligand to target: Table 1, ligand 50 μM, IIa target 2.5 μM
[2] = Single dose in vivo pharmacokinetic study; design: species or system rats; conditions: plasma, rat, single 3.0 mg/kg IV dose, mean; for AUC: iv, 3 mg/kg
Procedure: A single dose pharmacokinetic study was performed to investigate the pharmacokinetics of representative compounds. Of particular interest was the ability of the compounds to accumulate in liver, which is the target tissue for HCV chemotherapy as it is the primary reservoir of virus. 3-4 rats per group were administered a single dose (3 mg/kg intravenously, IV or 6 mg/kg orally, PO). Blood samples were taken at 0.25, 0.5, 1, 2, 3, 4, 6, and 8 h timepoints, and pharmacokinetic parameters calculated. Both representative compounds were rapidly distributed to tissues, as evidenced by the high clearance rates and volumes of distribution, and low levels of excretion (ca 10% of total drug in urine and feces at 8 h). Major tissues were examined for presence of drug. […] The tissue accumulation for the IV dose is shown in FIG. 1, as a function of concentration and percent of total administered dose.

For CN(C)CCCn1c(N)nc2ccccc21 [drawing 73], the “binding percentage of ligand to target” value [1] was 56% binding.
In the case of Nc1nc2ccccc2n1CCCN1CCCC1, the “binding percentage of ligand to target” value [1] is reported as 15%.
Work on CN(C)CC1CNc2nc3ccc(OCCCN(C)Cc4ccccn4)cc3n2C1 (stereo not shown) [IBIS00528637] yielded an MRT [2] of 2 h, a half-life [2] of 14 h and an AUC ([2]; read-out: AUC) of 165 ng·h/mL. The AUC ([2]; read-out: AUC Extrap) was 320 ng·h/mL.
CN(C)CCCn1c(N)nc2ccccc21 [drawing 78] showed an MS target selectivity ([1]; Table 2) of roughly 3.
With CN(C)CCn1c(N)nc2ccccc21 the “binding percentage of ligand to target” value [1] was 11%.
For CN(C)CCCOc1ccc2nc(N)[nH]c2c1, the “MS target selectivity” value ([1]; Table 3) was roughly 2.
For CN(C)CCCn1c(N)nc2ccccc21 [drawing 82], the “MS target selectivity” value ([1]; Table 3) was roughly 3.
In the case of CN(C)CCCOc1ccc2nc(N)n(CCCN(C)C)c2c1 [drawing 81], the “MS target selectivity” value ([1]; Table 3) is reported as roughly 15.
For CN(C)CCCOc1ccc2nc(N)n(CCCN(C)C)c2c1 [drawing 80], the MS target selectivity ([1]; Table 2) was roughly 15.
With CN(C)CCCn1c(N)nc2ccc(OCCCN(C)Cc3ccco3)cc21 [IBIS00405678] the MRT [2] was 3.1 h, the half-life [2] was 37.5 h and the AUC ([2]; read-out: AUC) was 311 ng·h/mL. It also gave an AUC ([2]; read-out: AUC Extrap) of 1930 ng·h/mL.
COc1ccc2nc(N)n(CCCN(C)C)c2c1 gave an MS target selectivity ([1]; Table 2) of roughly 10.
In the case of CCN(CC)CCn1c(N)nc2ccccc21, the “binding percentage of ligand to target” value [1] is reported as 15%.
In the case of Nc1nc2ccccc2n1CCOc1ccccc1, the “binding percentage of ligand to target” value [1] is reported as 6%.
